In patent US8895313B2, “Ligands for aggregated tau molecules” (Wista Laboratories Ltd., priority 2008, dated 2014):

Experiments:
[1] = target: T1, aggregated tau in 3T6 cells expressing htau40 (IPTG-inducible) and truncated tau (Homo sapiens, UniProt P10636); test: Tissue culture cell assay: uptake and labelling of aggregated tau; assay type: cell-based, mouse; details: induced cells
T1 construct: express both full-length human tau protein (htau40); truncated tau (295-390, dGA); expressed in transfected cells; host or cells: murine 3T6 fibroblasts; htau40 in pOPRSVI (IPTG-inducible), dGA in pcDNA3.1 (constitutive)
Experimental: The aggregated tau was prepared in cell lines as described in WO02/055720. In essence, fibroblast cells (3T6) express full-length tau (“T40”) under control of an inducible promotor, and low constitutive levels of the PHF-core tau fragment (12 kD fragment). Then T40 expression is induced, it undergoes aggregation-dependent truncation within the cell, N-terminally at ˜αα295 and C-terminally at ˜αα390, thereby producing higher levels of the 12 kD PHF-core domain fragment.
The tissue culture assay uses 3T6 mouse cells engineered to express both full-length human tau protein (htau40) under the control of an inducible promoter (pOPRSVI), and to express low levels of truncated tau (295-390, dGA) under the control of a constitutive promoter (pcDNA3.1). Expression of large quantities of htau40 is induced by the addition of isopropyl β-D-1-thiogalactopyranoside (IPTG; 10-50 μM), which in turn leads to the production of additional truncated tau by a process in which aggregation and processing of the full-length tau occurs in the presence of dGA tau which acts as template. The aggregation of tau in this assay is depicted in FIG. 1.
Murine 3T6 fibroblast cells were grown to ˜80% confluency in a 10-cm dish, before splitting into 2×24 well plates, and allowed to grow for a further 24 hrs when IPTG was added. After overnight incubation, the medium was removed and the cells were washed with PBS.
A similar experiment was performed with cells seeded on to cover slips in a 24-well plate. After 24 hrs, the cells were incubated with ligand for 20 hrs in the presence or absence of IPTG (100 μM) i.e. induced or uninduced.

[2] = Biodistribution assay of 18F-labelled ligand; assay type: in vivo, mouse; details: mice
Experimental: Biodistribution and excretion studies for ligands were performed in male NMRI mice (body weight app. 30 g; 3 animals per time point). The animals were kept under normal laboratory conditions at a temperature of 22±2° C. and a dark/light rhythm of 12 hours. Food and water were provided ad libitium. During an acclimatisation period of at least 3 days before the beginning of the study, animals were clinically examined to ascertain the absence of abnormal clinical signs. At 2, 5, 30, 60 and 120 min post intravenous injection via the tail vein of ca. 150 kBq in 100 μl of the test compound, urine and faeces were quantitatively collected. At the same time points, animals were anaesthetised with isoflurane, sacrificed by decapitation and the following organs and tissues were removed for the determination of radioactivity using a gamma-counter: spleen, liver, kidney, lung, bone, heart, brain, fat, thyroid, muscle, skin, blood, tail, stomach (without content), testicle, intestine (with content), pancreas, adrenals, skull, and the remaining body. For the analysis, the decay corrected percentage of the injected dose per tissue weight (% ID/g±standard deviation) was calculated.

## Oc1ccc(/N=N/c2ccc(-c3nc4ccc(O)cc4s3)cc2)c(C(F)(F)F)c1 [LS-T213, 4-{(E)-[4-(6-Hydroxy-1,3-benzothiazol-2-yl)phenyl]diazenyl}-3-(trifluoromethyl)phenol]
[1]
  binding to aggregated tau within cells, fluorescence microscopy: selective binding

## COc1ccc2nc(-c3ccc(NC(=O)c4ccc([18F])nc4)cc3)sc2c1 [SKT04-137, 6-[^18F]Fluoro-N-[4-(6-methoxy-benzothiazol-2-yl)-phenyl]-nicotinamide]
[2]; Adrenals, 2 min post i.v.
  % ID/g: 10.84 % ID/g
[2]; Adrenals, 5 min post i.v.
  % ID/g: 9.59 % ID/g
[2]; Adrenals, 30 min post i.v.
  % ID/g: 5.62 % ID/g
[2]; Adrenals, 60 min post i.v.
  % ID/g: 2.83 % ID/g
[2]; Adrenals, 120 min post i.v.
  % ID/g: 1.04 % ID/g
[2]; Blood, 2 min post i.v.
  % ID/g: 1.69 % ID/g
[2]; Blood, 5 min post i.v.
  % ID/g: 1.12 % ID/g
[2]; Blood, 30 min post i.v.
  % ID/g: 0.74 % ID/g
[2]; Blood, 60 min post i.v.
  % ID/g: 0.39 % ID/g
[2]; Blood, 120 min post i.v.
  % ID/g: 0.16 % ID/g
[2]; Bone, 2 min post i.v.
  % ID/g: 1.54 % ID/g
[2]; Bone, 5 min post i.v.
  % ID/g: 1.50 % ID/g
[2]; Bone, 30 min post i.v.
  % ID/g: 1.20 % ID/g
[2]; Bone, 60 min post i.v.
  % ID/g: 1.96 % ID/g
[2]; Bone, 120 min post i.v.
  % ID/g: 1.65 % ID/g
[2]; Brain, 2 min post i.v.
  % ID/g: 3.99 % ID/g
[2]; Brain, 5 min post i.v.
  % ID/g: 3.54 % ID/g
[2]; Brain, 30 min post i.v.
  % ID/g: 3.19 % ID/g
[2]; Brain, 60 min post i.v.
  % ID/g: 1.43 % ID/g
[2]; Brain, 120 min post i.v.
  % ID/g: 0.60 % ID/g
[2]; Fat, 2 min post i.v.
  % ID/g: 1.25 % ID/g
[2]; Fat, 5 min post i.v.
  % ID/g: 1.57 % ID/g
[2]; Fat, 30 min post i.v.
  % ID/g: 7.21 % ID/g
[2]; Fat, 60 min post i.v.
  % ID/g: 4.51 % ID/g
[2]; Fat, 120 min post i.v.
  % ID/g: 1.76 % ID/g
[2]; Heart, 2 min post i.v.
  % ID/g: 6.68 % ID/g
[2]; Heart, 5 min post i.v.
  % ID/g: 3.72 % ID/g
[2]; Heart, 30 min post i.v.
  % ID/g: 1.62 % ID/g
[2]; Heart, 60 min post i.v.
  % ID/g: 0.81 % ID/g
[2]; Heart, 120 min post i.v.
  % ID/g: 0.39 % ID/g
[2]; Intestine, 2 min post i.v.
  % ID/g: 1.99 % ID/g
[2]; Intestine, 5 min post i.v.
  % ID/g: 2.45 % ID/g
[2]; Intestine, 30 min post i.v.
  % ID/g: 9.36 % ID/g
[2]; Intestine, 60 min post i.v.
  % ID/g: 17.43 % ID/g
[2]; Intestine, 120 min post i.v.
  % ID/g: 20.08 % ID/g
[2]; Kidney, 2 min post i.v.
  % ID/g: 9.60 % ID/g
[2]; Kidney, 5 min post i.v.
  % ID/g: 7.10 % ID/g
[2]; Kidney, 30 min post i.v.
  % ID/g: 6.38 % ID/g
[2]; Kidney, 60 min post i.v.
  % ID/g: 3.78 % ID/g
[2]; Kidney, 120 min post i.v.
  % ID/g: 1.49 % ID/g
[2]; Liver, 2 min post i.v.
  % ID/g: 11.52 % ID/g
[2]; Liver, 5 min post i.v.
  % ID/g: 13.30 % ID/g
[2]; Liver, 30 min post i.v.
  % ID/g: 7.03 % ID/g
[2]; Liver, 60 min post i.v.
  % ID/g: 4.26 % ID/g
[2]; Liver, 120 min post i.v.
  % ID/g: 2.41 % ID/g
[2]; Lung, 2 min post i.v.
  % ID/g: 6.91 % ID/g
[2]; Lung, 5 min post i.v.
  % ID/g: 4.55 % ID/g
[2]; Lung, 30 min post i.v.
  % ID/g: 1.83 % ID/g
[2]; Lung, 60 min post i.v.
  % ID/g: 0.97 % ID/g
[2]; Lung, 120 min post i.v.
  % ID/g: 0.40 % ID/g
[2]; Muscle, 2 min post i.v.
  % ID/g: 1.98 % ID/g
[2]; Muscle, 5 min post i.v.
  % ID/g: 1.80 % ID/g
[2]; Muscle, 30 min post i.v.
  % ID/g: 1.11 % ID/g
[2]; Muscle, 60 min post i.v.
  % ID/g: 0.63 % ID/g
[2]; Muscle, 120 min post i.v.
  % ID/g: 0.20 % ID/g
[2]; Pancreas, 2 min post i.v.
  % ID/g: 4.34 % ID/g
[2]; Pancreas, 5 min post i.v.
  % ID/g: 3.17 % ID/g
[2]; Pancreas, 30 min post i.v.
  % ID/g: 1.74 % ID/g
[2]; Pancreas, 60 min post i.v.
  % ID/g: 1.11 % ID/g
[2]; Pancreas, 120 min post i.v.
  % ID/g: 0.33 % ID/g
[2]; Skin, 2 min post i.v.
  % ID/g: 1.01 % ID/g
[2]; Skin, 5 min post i.v.
  % ID/g: 1.28 % ID/g
[2]; Skin, 30 min post i.v.
  % ID/g: 1.87 % ID/g
[2]; Skin, 60 min post i.v.
  % ID/g: 1.11 % ID/g
[2]; Skin, 120 min post i.v.
  % ID/g: 0.45 % ID/g
[2]; Skull, 2 min post i.v.
  % ID/g: 1.93 % ID/g
[2]; Skull, 5 min post i.v.
  % ID/g: 1.28 % ID/g
[2]; Skull, 30 min post i.v.
  % ID/g: 0.95 % ID/g
[2]; Skull, 60 min post i.v.
  % ID/g: 1.44 % ID/g
[2]; Skull, 120 min post i.v.
  % ID/g: 1.04 % ID/g
[2]; Spleen, 2 min post i.v.
  % ID/g: 2.95 % ID/g
[2]; Spleen, 5 min post i.v.
  % ID/g: 2.44 % ID/g
[2]; Spleen, 30 min post i.v.
  % ID/g: 1.19 % ID/g
[2]; Spleen, 60 min post i.v.
  % ID/g: 0.60 % ID/g
[2]; Spleen, 120 min post i.v.
  % ID/g: 0.30 % ID/g
[2]; Stomach, 2 min post i.v.
  % ID/g: 3.67 % ID/g
[2]; Stomach, 5 min post i.v.
  % ID/g: 2.28 % ID/g
[2]; Stomach, 30 min post i.v.
  % ID/g: 2.48 % ID/g
[2]; Stomach, 60 min post i.v.
  % ID/g: 2.17 % ID/g
[2]; Stomach, 120 min post i.v.
  % ID/g: 0.98 % ID/g
[2]; Tail, 2 min post i.v.
  % ID/g: 15.89 % ID/g
[2]; Tail, 5 min post i.v.
  % ID/g: 7.40 % ID/g
[2]; Tail, 30 min post i.v.
  % ID/g: 3.74 % ID/g
[2]; Tail, 60 min post i.v.
  % ID/g: 7.70 % ID/g
[2]; Tail, 120 min post i.v.
  % ID/g: 4.93 % ID/g
[2]; Testes, 2 min post i.v.
  % ID/g: 0.97 % ID/g
[2]; Testes, 5 min post i.v.
  % ID/g: 1.10 % ID/g
[2]; Testes, 30 min post i.v.
  % ID/g: 1.68 % ID/g
[2]; Testes, 60 min post i.v.
  % ID/g: 1.18 % ID/g
[2]; Testes, 120 min post i.v.
  % ID/g: 0.61 % ID/g
[2]; Thyroid, 2 min post i.v.
  % ID/g: 3.97 % ID/g
[2]; Thyroid, 5 min post i.v.
  % ID/g: 2.59 % ID/g
[2]; Thyroid, 30 min post i.v.
  % ID/g: 1.06 % ID/g
[2]; Thyroid, 60 min post i.v.
  % ID/g: 0.59 % ID/g
[2]; Thyroid, 120 min post i.v.
  % ID/g: 0.37 % ID/g
[2]; i.v., 60 min vs 2 min
  brain washout: 64%
[2]; i.v., after 2 min
  brain uptake: 3.99 % injected dose/g tissue
[2]; i.v., after 60 min
  brain level: 1.43 % injected dose/g tissue
